Tested on: 439559-082-T-J2-PDC spheroid viability
Assay: Anticancer human tumor 439559-082-T-J2-PDC patient-derived colon adenocarcinoma cell line growth inhibition [POLQ]
Conditions: spheroids with HUVEC and MSC; for IC50: curve of first compound; for viability, T/C: stronger effect = lower value
Procedure: Multicellular complex tumor spheroid response to Polymerase (POL) inhibitors (novobiocin, ART-558, RP6685) in combination with a variety of drugs and investigational agents in selected tumor cell lines
The POL inhibitors (novobiocin, ART-558, and RP6685) were evaluated both individually and in combination with standard of care and investigational anticancer small molecules within a complex spheroid model of solid tumors. . Complex spheroids include a stromal component modeled by human endothelial cells (HUVEC) and fibroblasts modeled by human mesenchymal stem cells (MSCs). The concentration ranges selected for each drug and investigational agent were based upon clinically achievable concentrations if the clinical Cmax of the agent was known.
Compounds. The drugs and investigational agents: novobiocin (NSC847541), ART-558 (NSC835418), RP-6685 (NSC848927), peposertib (NSC802822), ceralasertib (NSC780249), elimusertib (NSC800525), camonsertib (NSC841442), AZD-1390 (NSC803789), olaparib (NSC753686), talazoparib (NSC767125), rucaparib (NSC756644), sotorasib (NSC818433), MRTX-1133 (NSC836407), SN-38 (NSC673596), topotecan (NSC609699), epotoside (NSC141540), doxorubicin (NSC123127), gemcitabine (NSC613327), 5-fluorouracil (NSC19893), paclitaxel (NSC125973), vemurafenib (NSC761431), MSA-2 (NSC828583), SN-011 (NSC837082), adavosertib (NSC754352), prexasertib (NSC758257), carboplatin (NSC241240) and oxaliplatin (NSC266046), were obtained from the National Cancer Institute (NCI) Developmental Therapeutics Program Chemical Repository (21). The FDA-approved anticancer drug set is available from the Developmental Therapeutics Program at https://dtp.cancer.gov/organization/dscb/obtaining/. […] The stock solutions were prepared in dimethyl sulfoxide (DMSO, Sigma-Aldrich, St. Louis, MO, cat. D2650), except for the platinum compounds which were prepared in saline (Quality Biological, Gaithersburg, MD, cat. 114-055-101), at 800-fold the tested concentration and stored at -70 degrees C prior to their use. All drugs and investigational agents were tested over a range starting from a high concentration at or near the clinical Cmax and decreasing in half-log increments. If the clinical Cmax for an agent had not been determined, the highest concentration tested was 10 microM, except for SN-38, which was tested at a high concentration of 1 microM.
Cell Culture. All cells were maintained in an incubator at 37 degrees C and 5% CO2 with 95% humidity. The PDC lines were cultured according to standard operating procedures established by the NCI PDMR (https://pdmr.cancer.gov). Table 3 of the manuscript, lists the cell lines along with the number of the three cell types plated to form the mct-spheroids and media for tumor cell growth. After thawing, all PDC lines, except 997537-175-T-J1-PDC and 415267-285-R-J2-PDC, were cultured in Matrigel-coated flasks prepared with a working solution of 1X Ham's F-12 nutrient mix, without supplementation (Thermo Fisher Scientific, cat. 11765054), 100 U/mL penicillin-streptomycin (Thermo Fisher Scientific, cat. 15140122), and 2.5% Matrigel (Corning Inc., Corning, NY, cat. 354248) for the first three passages. The two PDC lines 997537-175-T-J1-PDC and 415267-285-R-J2-PDC were cultured on uncoated flasks. The 857933-349-R-J2-PDC line was cultured in 6C/Colon 1B media containing advanced DMEM/F-12 (Thermo Fisher Scientific, cat. 12634028), 10 mM HEPES (Thermo Fisher Scientific, cat. 15630080), 1X GlutaMAX supplement (Thermo Fisher Scientific, cat. 35050061), 0.1 mg/mL primocin (InvivoGen, San Diego, CA, cat. ant-pm-2), 10% defined fetal bovine serum, heat inactivated (HyClone Laboratories Inc., Logan, UT, cat. SH30070.03HI), 50% L-WRN conditioned media (ATCC, cat. CRL-3276), 1.25 mM N-Acetyl-L-cysteine (Sigma-Aldrich, cat. A9165), 10 mM nicotinamide (Sigma-Aldrich, cat. N0636), 1X B-27 supplement (Thermo Fisher Scientific, cat. 17504044), 1X N-2 supplement (Thermo Fisher Scientific, cat. […]
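Note: spheroids exposed to compounds for seven days before readout.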
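Throughout, for viability, T/C: 100% = DMSO vehicle control viability.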

COc1cc(C2c3cc4c(cc3C(OC3OC5COC(C)OC5C(O)C3O)C3COC(=O)C23)OCO4)cc(OC)c1O (configuration not stated) + COC1C(OC(N)=O)C(O)C(Oc2ccc3c(O)c(NC(=O)c4ccc(O)c(CC=C(C)C)c4)c(=O)oc3c2C)OC1(C)C
IC50 (second compound 0.0316 µM): > 10 µM | IC50 (second compound 0.1 µM): > 10 µM | IC50 (second compound 0.316 µM): > 10 µM | IC50 (second compound 1 µM): > 10 µM | IC50 (second compound 3.16 µM): > 10 µM | IC50 (second compound 10 µM): > 10 µM | viability, T/C (second compound 0.0316 µM, first compound 0.0316 µM): 94.7% | viability, T/C (second compound 0.0316 µM, first compound 0.1 µM): 97.2% | viability, T/C (second compound 0.0316 µM, first compound 0.316 µM): 102% | viability, T/C (second compound 0.0316 µM, first compound 1 µM): 98% | viability, T/C (second compound 0.0316 µM, first compound 3.16 µM): 90% | viability, T/C (second compound 0.0316 µM, first compound 10 µM): 76.8% | viability, T/C (second compound 0.1 µM, first compound 0.0316 µM): 108% | viability, T/C (second compound 0.1 µM, first compound 0.1 µM): 108% | viability, T/C (second compound 0.1 µM, first compound 0.316 µM): 102% | viability, T/C (second compound 0.1 µM, first compound 1 µM): 90.7% | viability, T/C (second compound 0.1 µM, first compound 3.16 µM): 92.7% | viability, T/C (second compound 0.1 µM, first compound 10 µM): 72.9% | viability, T/C (second compound 0.316 µM, first compound 0.0316 µM): 102% | viability, T/C (second compound 0.316 µM, first compound 0.1 µM): 105% | viability, T/C (second compound 0.316 µM, first compound 0.316 µM): 91% | viability, T/C (second compound 0.316 µM, first compound 1 µM): 98.6% | viability, T/C (second compound 0.316 µM, first compound 3.16 µM): 89.5% | viability, T/C (second compound 0.316 µM, first compound 10 µM): 69.8% | viability, T/C (second compound 1 µM, first compound 0.0316 µM): 102% | viability, T/C (second compound 1 µM, first compound 0.1 µM): 94.7% | viability, T/C (second compound 1 µM, first compound 0.316 µM): 98.6% | viability, T/C (second compound 1 µM, first compound 1 µM): 100% | viability, T/C (second compound 1 µM, first compound 3.16 µM): 87.1% | viability, T/C (second compound 1 µM, first compound 10 µM): 71.5% | viability, T/C (second compound 3.16 µM, first compound 0.0316 µM): 101% | viability, T/C (second compound 3.16 µM, first compound 0.1 µM): 101% | viability, T/C (second compound 3.16 µM, first compound 0.316 µM): 99.1% | viability, T/C (second compound 3.16 µM, first compound 1 µM): 94.5% | viability, T/C (second compound 3.16 µM, first compound 3.16 µM): 91.4% | viability, T/C (second compound 3.16 µM, first compound 10 µM): 73.1% | viability, T/C (second compound 10 µM, first compound 0.0316 µM): 100% | viability, T/C (second compound 10 µM, first compound 0.1 µM): 103% | viability, T/C (second compound 10 µM, first compound 0.316 µM): 100% | viability, T/C (second compound 10 µM, first compound 1 µM): 92.4% | viability, T/C (second compound 10 µM, first compound 3.16 µM): 86.8% | viability, T/C (second compound 10 µM, first compound 10 µM): 71.7%

From PubChem BioAssay AID1963841 (Molecular Pharmacology Branch, DTP, NCI, 2024)
